Consider 2 compounds from ChEMBL document CHEMBL1140419, “Synthesis of doxorubicin-peptide conjugate with multidrug resistant tumor cell killing activity” (Bioorg Med Chem Lett, 2005).

Data set [1] relates to AT3B-1. The experiment in a line: Inhibition of tumor killing activity in AT3B1 drug-resistant cell line with 10 uM verapamil (P-gp inhibitor). The class given is functional, cell-based. The conditions noted are these: Rattus norvegicus.
Data set [2] concerns AT3B-1. The experiment in a line: Percentage intracellular concentration in AT3B1 drug-resistant cell line. The class given is ADME, cell-based, Homo sapiens.
Data set [3] has as its system AT3B-1. In words: Tumor killing activity in AT3B1 drug-resistant cell line by MTT assay. The data set is classed as functional, cell-based. The conditions noted are these: Rattus norvegicus.
The subject of data set [4] is NCI/ADR-RES. In words: Tumor killing activity in MCF7/ADR drug-resistant cell line by MTT assay. To be noted: Homo sapiens. The class given is functional, cell-based.
Data set [5] relates to MCF7. In words: Cytotoxicity on drug-sensitive MCF7 cells. The data set is classed as functional, cell-based. To be noted: Homo sapiens.
The test system of data set [6] is NCI/ADR-RES. In words: Percentage intracellular concentration in MCF7/ADR drug-resistant cell line. The conditions noted are these: human. The class given is ADME, cell-based.
Data set [7] concerns NCI/ADR-RES. In words: Tumor killing activity in MCF7/ADR drug-resistant cell line with 10 uM verapamil (P-gp inhibitor). The data set is classed as functional, cell-based. To be noted: Homo sapiens.
Data set [8] relates to MCF7. In words: Percentage intracellular concentration in MCF7 breast cancer cells. The class given is ADME, cell-based. The conditions noted are these: human.
Data set [9] relates to MCF7. In words: Tumor killing activity in MCF7 breast cancer cells by MTT assay. The data set is classed as functional, cell-based. The conditions noted are these: Homo sapiens.

Regarding `COc1cccc2c1C(=O)c1c(O)c3c(c(O)c1C2=O)C[C@@](O)(C(=O)CO)C[C@@H]3O[C@H]1C[C@H](N)[C@H](O)[C@H](C)O1` [DOXORUBICIN], the IC50 in the data set on AT3B-1 [1] was found to be 42.4 µM; in the data set on AT3B-1 [3] it was 168 µM; in the data set on NCI/ADR-RES [4], 45.2 µM; in the data set with NCI/ADR-RES [7] it was 6.7 µM. Also, the permeability in the data set on AT3B-1 [2] amounted to 7.9%; with NCI/ADR-RES [6], 4.5%; in the data set on MCF7 [8] it was 92.3%. Also, the Activity result in the data set with MCF7 [5] was “Dose-dependent effect”.
Consider `COc1cccc2c1C(=O)c1c(O)c3c(c(O)c1C2=O)C[C@@](O)(C(=O)CO)C[C@@H]3O[C@H]1C[C@H](NC(=O)C2CCC(CN3C(=O)CC(SC[C@H](N)C(=O)NCC(=O)NCC(=O)NCC(=O)N[C@@H](Cc4ccc(O)cc4)C(=O)NCC(=O)N[C@@H](CCCN=C(N)N)C(=O)N[C@@H](CCCCN)C(=O)N[C@@H](CCCCN)C(=O)N[C@@H](CCCN=C(N)N)C(=O)N[C@@H](CCCN=C(N)N)C(=O)N[C@@H](CCC(N)=O)C(=O)N[C@@H](CCCN=C(N)N)C(=O)N[C@@H](CCCN=C(N)N)C(=O)N[C@@H](CCCN=C(N)N)C(=O)O)C3=O)CC2)[C@H](O)[C@H](C)O1` (some centres not stated), for which the IC50 was 23.8 µM in the data set with AT3B-1 [1]; 0.28 µM in the data set with MCF7 [9]; 23.4 µM in the data set with AT3B-1 [3]; 5.8 µM in the data set with NCI/ADR-RES [4]; 5.2 µM with NCI/ADR-RES [7]. Besides, the permeability turned out to be 49.3% with AT3B-1 [2], 58.4% in the data set on NCI/ADR-RES [6] and 84.6% in the data set on MCF7 [8]. The Activity result in the data set on MCF7 [5] was “Dose-dependent effect”.
